Laboratory results reported in patent US9877957B2, “Tetrahydroisoquinoline derivatives useful as inhibitors of diacylglyceride O-acyltransferase 2” (Merck Sharp & Dohme Corp., priority 2014, dated 2018).

The compounds below were run against hDGAT2 (Homo sapiens (Human), UniProt Q96PD7) (assay: DGAT2 Enzymatic Activity Assay (triolein formation, LC/MS/MS)). Details: Sf-9 membrane prep expressing hDGAT2; 25 μM diolein, 10 μM oleoyl-CoA; room temperature; read-out: IC50 values for inhibition of DGAT2.
Format: biochemical
Protocol: In Vitro DGAT2 ASSAYS and Determination of IC50 Values for DGAT2 Inhibitors
Insect Cell Expression and Membrane Preparation
Sf-9 insect cells were maintained in Grace's insect cell culture medium with 10% heated-inactivated fetal bovine serum, 1% Pluronic F-68 and 0.14 μg/ml Kanamycine sulfate in Erlenmeyer flasks at 28° C. in a shaker incubator. After infection with untagged hDGAT2 baculovirus at multiplicity of infection (MOI) 0.1 for 48 hours, cells were harvested. Cell pellets were suspended in buffer containing 10 mM Tris-HCl (pH 7.5), 1 mM EDTA (pH 8.0), 250 mM sucrose and Complete Protease Inhibitor Cocktail (Roche Diagnostics Corp., Indianapolis, Ill.), and sonicated on ice. Membrane fractions were isolated by ultracentrifugation (100,000× g pellet), resuspended in the same buffer, and frozen (−80° C.) for later use. The protein concentration was determined with the BCA Protein Assay kit (Pierce Biotechnology Inc., Rockford, Ill.). Expression of protein levels was analyzed by immunoblotting with goat polyclonal DGAT2 antibody C-15 and donkey anti-goat IgG HRP (Santa Cruz Biotechnology, Inc., Santa Cruz, Calif.) followed by detection with ECL reagent (GE Healthcare, Piscataway, N.J.).
LC/MS/MS analyses were performed using Thermal Fisher's LX4-TSQ Vantage system. This system consists of an Agilent binary high-performance liquid chromatography (HPLC) pumps and a TSQ Vantage triple quadrupole MS/MS instrument. For each sample, 2 μL samples from the top organic layer of in-plate liquid-liquid extraction were injected onto a Thermo Betabasic C4 column (2.1 mm×20 mm, 5 μm particle size). The samples were then eluted using the following conditions; mobile phase: methanol/water with 0.1% ammonium format=92/8 (v/v), flow rate: 1 mL/min, temperature: 25° C. Data was acquired in positive mode using a heated electrospray ionization (HESI) interface. The operational parameters for the TSQ Vantage MS/MS instrument were a spray voltage of 3000 V, capillary temperature of 280° C., vaporizer temperature 400° C., shealth gas 60 arbitrary unit, Aux gas 40 arbitrary units, S-lens 113 and collision gas 0.16 Pascals. […] (SRM) chromatograms of triolein (Q1: 902.9>Q3:602.3) and internal standard (Q1: 902.9>Q3:602.3) were collected for 40 sec. The peak area was integrated by Xcalibur Quan software. The ratio between the triolein generated in the reaction and spiked in internal standard were used to generate percentage inhibition and IC50 values. Compound percentage inhibition was calculated by the following formula: Inhibition %=1−[(compound response−low control)/(high control−low control)]×100%. Potent compounds were titrated and IC50 were calculated by 4 parameter sigmoidal curve fitting formula.
DGAT2 Enzymatic Activity Assay
DGAT2 activity was determined by measuring the amount of enzymatic product triolein (1,2,3-Tri(cis-9-octadecenoyl)glycerol) using the membrane prep mentioned above. The assay was carried out in deep well 384 plates in a final volume of 40 μL at room temperature. The assay mixture contained the following: assay buffer (100 mM Tris·Cl, pH 7.0, 20 mM MgCl2, 5% ethanol), 25 μM of diolein, 10 μM of oleoyl-CoA and 10 ng/μL of DGAT2 membrane.

Sequence of hDGAT2 (Q96PD7 whole entry): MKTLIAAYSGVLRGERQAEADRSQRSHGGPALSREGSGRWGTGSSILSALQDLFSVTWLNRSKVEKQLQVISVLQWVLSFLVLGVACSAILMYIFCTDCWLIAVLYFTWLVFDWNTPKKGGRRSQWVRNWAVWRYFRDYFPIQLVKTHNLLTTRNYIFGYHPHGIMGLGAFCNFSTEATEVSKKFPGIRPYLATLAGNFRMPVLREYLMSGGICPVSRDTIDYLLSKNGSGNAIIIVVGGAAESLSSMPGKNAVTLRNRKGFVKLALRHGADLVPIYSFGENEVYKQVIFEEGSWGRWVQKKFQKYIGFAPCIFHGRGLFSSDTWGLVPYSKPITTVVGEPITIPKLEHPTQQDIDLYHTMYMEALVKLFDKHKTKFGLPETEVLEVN

Row | Compound | IC50
1 | CC(C)(C)NC(=O)N1CCc2c(-c3cccc(C(F)(F)F)c3)ccc(C(=O)NCc3cnn4ccccc34)c2C1 [Example 30, N^2-(tert-butyl)-N^8-(pyrazolo[1,5-a]pyridin-3-ylmethyl)-5-(3-(trifluoromethyl)phenyl)-3,4-dihydroisoquinoline-2,8(1H)-dicarboxamide] | 351 nM
2 | Cc1cc(C)n(CCNC(=O)c2ccc(-c3cccc(C(F)(F)F)c3)c3c2CN(C(=O)NC(C)(C)C)CC3)n1 [Example 31, N^2-(tert-butyl)-N^8-(2-(3,5-dimethyl-1H-pyrazol-1-yl)ethyl)-5-(3-(trifluoromethyl)phenyl)-3,4-dihydroisoquinoline-2,8(1H)-dicarboxamide] | 505 nM
3 | Cc1sc(-c2ccccc2)nc1CNC(=O)c1ccc(-c2cccc(C(F)(F)F)c2)c2c1CN(C(=O)NC(C)(C)C)CC2 [Example 32, N^2-(tert-butyl)-N^8-((5-methyl-2-phenylthiazol-4-yl)methyl)-5-(3-(trifluoromethyl)phenyl)-3,4-dihydroisoquinoline-2,8(1H)-dicarboxamide] | 539 nM
4 | CC(C)(C)NC(=O)N1CCc2c(-c3cccc(C(F)(F)F)c3)ccc(C(=O)NCCn3nnc4ccccc43)c2C1 [Example 34, N^8-(2-(1H-benzo[d][1,2,3]triazol-1-yl)ethyl)-N^2-(tert-butyl)-5-(3-(trifluoromethyl)phenyl)-3,4-dihydroisoquinoline-2,8(1H)-dicarboxamide] | 664 nM
5 | CC(C)(C)NC(=O)N1CCc2c(-c3cccc(C(F)(F)F)c3)ccc(C(=O)NCc3n[nH]c4c3CCC4)c2C1 [Example 35, N^2-(tert-butyl)-N^8-((1,4,5,6-tetrahydrocyclopenta[c]pyrazol-3-yl)methyl)-5-(3-(trifluoromethyl)phenyl)-3,4-dihydroisoquinoline-2,8(1H)-dicarboxamide] | 727 nM
6 | CC(C)(C)NC(=O)N1CCc2c(-c3cccc(C(F)(F)F)c3)ccc(C(=O)NCC(c3ccccn3)N3CCOCC3)c2C1 (stereo not shown) [Example 36, N^2-(tert-butyl)-N^8-(2-morpholino-2-(pyridin-2-yl)ethyl)-5-(3-(trifluoromethyl)phenyl)-3,4-dihydroisoquinoline-2,8(1H)-dicarboxamide] | 737 nM
7 | CC(C)(C)NC(=O)N1CCc2c(-c3cccc(C(F)(F)F)c3)ccc(C(=O)NCCn3nncc3-c3ccccc3)c2C1 [Example 37, N^2-(tert-butyl)-N^8-(2-(5-phenyl-1H-1,2,3-triazol-1-yl)ethyl)-5-(3-(trifluoromethyl)phenyl)-3,4-dihydroisoquinoline-2,8(1H)-dicarboxamide] | 739 nM
8 | Cc1cc(C(F)(F)F)nc(CCNC(=O)c2ccc(-c3cccc(C(F)(F)F)c3)c3c2CN(C(=O)NC(C)(C)C)CC3)n1 [Example 38, N^2-(tert-butyl)-N^8-(2-(4-methyl-6-(trifluoromethyl)pyrimidin-2-yl)ethyl)-5-(3-(trifluoromethyl)phenyl)-3,4-dihydroisoquinoline-2,8(1H)-dicarboxamide] | 854 nM
9 | CC(C)(C)NC(=O)N1CCc2c(-c3cccc(C(F)(F)F)c3)ccc(C(=O)NCc3scnc3-c3ccccc3)c2C1 [Example 39, N^2-(tert-butyl)-N^8-((4-phenylthiazol-5-yl)methyl)-5-(3-(trifluoromethyl)phenyl)-3,4-dihydroisoquinoline-2,8(1H)-dicarboxamide] | 890 nM
10 | CC(C)(C)NC(=O)N1CCc2c(-c3cccc(C(F)(F)F)c3)ccc(C(=O)NCCc3ccccc3C(F)(F)F)c2C1 [Example 40, N^2-(tert-butyl)-N^8-(2-(trifluoromethyl)phenethyl)-5-(3-(trifluoromethyl)phenyl)-3,4-dihydroisoquinoline-2,8(1H)-dicarboxamide] | 905 nM
11 | Cc1nc(C)c(CNC(=O)c2ccc(-c3cccc(C(F)(F)F)c3)c3c2CN(C(=O)NC(C)(C)C)CC3)s1 [Example 41, N^2-(tert-butyl)-N^8-((2,4-dimethylthiazol-5-yl)methyl)-5-(3-(trifluoromethyl)phenyl)-3,4-dihydroisoquinoline-2,8(1H)-dicarboxamide] | 907 nM
12 | CC(C)(C)NC(=O)N1CCc2c(-c3cccc(C(F)(F)F)c3)ccc(C(=O)NCCc3ncn[nH]3)c2C1 [Example 42, N^8-(2-(1H-1,2,4-triazol-5-yl)ethyl)-N^2-(tert-butyl)-5-(3-(trifluoromethyl)phenyl)-3,4-dihydroisoquinoline-2,8(1H)-dicarboxamide] | 959 nM
13 | CC(C)(C)NC(=O)N1CCc2c(-c3cccc(C(F)(F)F)c3)ccc(C(=O)NCCN3CCCc4ccccc43)c2C1 [Example 43, N^2-(tert-butyl)-N^8-(2-(3,4-dihydroquinolin-1(2H)-yl)ethyl)-5-(3-(trifluoromethyl)phenyl)-3,4-dihydroisoquinoline-2,8(1H)-dicarboxamide] | 1140 nM
14 | CC(CNC(=O)c1ccc(-c2cccc(C(F)(F)F)c2)c2c1CN(C(=O)NC(C)(C)C)CC2)n1cccn1 (stereo not shown) [Example 44, N^8-(2-(1H-pyrazol-1-yl)propyl)-N^2-(tert-butyl)-5-(3-(trifluoromethyl)phenyl)-3,4-dihydroisoquinoline-2,8(1H)-dicarboxamide] | 1200 nM

These reach a lower IC50. Values come first.

Row | IC50 | Compound
15 | 205 nM | Cn1c(CCNC(=O)c2ccc(-c3cccc(C(F)(F)F)c3)c3c2CN(C(=O)NC(C)(C)C)CC3)nc2ccccc21 [Example 20, N^2-(tert-butyl)-N^8-(2-(1-methyl-1H-benzo[d]imidazol-2-yl)ethyl)-5-(3-(trifluoromethyl)phenyl)-3,4-dihydroisoquinoline-2,8(1H)-dicarboxamide]
16 | 235 nM | CC(C)(C)NC(=O)N1CCc2c(-c3cccc(OC(F)(F)F)c3)ccc(C(=O)NCc3nccc4ccccc34)c2C1 [Example 22, N^2-(tert-butyl)-N^8-(isoquinolin-1-ylmethyl)-5-(3-(trifluoromethoxy)phenyl)-3,4-dihydroisoquinoline-2,8(1H)-dicarboxamide]
17 | 244 nM | CC(C)(C)NC(=O)N1CCc2c(-c3cccc(C(F)(F)F)c3)ccc(C(=O)NCCc3cn4ccccc4n3)c2C1 [Example 23, N^2-(tert-butyl)-N^8-(2-(imidazo[1,2-a]pyridin-2-yl)ethyl)-5-(3-(trifluoromethyl)phenyl)-3,4-dihydroisoquinoline-2,8(1H)-dicarboxamide]
18 | 265 nM | CC(C)(C)NC(=O)N1CCc2c(-c3cccc(C(F)(F)F)c3)ccc(C(=O)NCc3nccc4cccnc34)c2C1 [Example 24, N^8-((1,7-naphthyridin-8-yl)methyl)-N^2-(tert-butyl)-5-(3-(trifluoromethyl)phenyl)-3,4-dihydroisoquinoline-2,8(1H)-dicarboxamide]
19 | 271 nM | Cc1nn2cc(CCNC(=O)c3ccc(-c4cccc(C(F)(F)F)c4)c4c3CN(C(=O)NC(C)(C)C)CC4)nc2s1 [Example 25, N^2-(tert-butyl)-N^8-(2-(2-methylimidazo[2,1-b][1,3,4]thiadiazol-6-yl)ethyl)-5-(3-(trifluoromethyl)phenyl)-3,4-dihydroisoquinoline-2,8(1H)-dicarboxamide]
20 | 292 nM | CC(C)(C)NC(=O)N1CCc2c(-c3cccc(C(F)(F)F)c3)ccc(C(=O)NCc3ccnc4ccccc34)c2C1 [Example 26, N^2-(tert-butyl)-N^8-(quinolin-4-ylmethyl)-5-(3-(trifluoromethyl)phenyl)-3,4-dihydroisoquinoline-2,8(1H)-dicarboxamide]
21 | 314 nM | CC(C)(C)NC(=O)N1CCc2c(-c3cccc(C(F)(F)F)c3)ccc(C(=O)NCc3conc3C#N)c2C1 [Example 27, N^2-(tert-butyl)-N^8-((3-cyanoisoxazol-4-yl)methyl)-5-(3-(trifluoromethyl)phenyl)-3,4-dihydroisoquinoline-2,8(1H)-dicarboxamide]
22 | 329 nM | CC(C)(C)NC(=O)N1CCc2c(-c3cccc(C(F)(F)F)c3)ccc(C(=O)NCCc3cscn3)c2C1 [Example 29, N^2-(tert-butyl)-N^8-(2-(thiazol-4-yl)ethyl)-5-(3-(trifluoromethyl)phenyl)-3,4-dihydroisoquinoline-2,8(1H)-dicarboxamide]
